Experimental data reported in US11812767B2, “Beverage having Reb D and Reb M” (SUNTORY HOLDINGS LIMITED, priority 2018, dated 2023).

Experiments:
[1] = Degradation of Reb D and Reb M in phosphate buffer at 40° C. for 8 weeks, analysed by HPLC; format: physicochemical; details: for % Reb D degradation 2 weeks: 2 weeks at 40° C.; for % Reb D degradation 4 weeks: 4 weeks at 40° C.; for % Reb D degradation 6 weeks: 6 weeks at 40° C.; for % Reb D degradation 8 weeks: 8 weeks at 40° C.
Protocol: A study was carried out as follows, samples were prepared comprising 50 ppm, 150 ppm, 250 ppm and 400 ppm, of Reb D and samples with the following ratios of Reb D:Reb M 1:4, 1:1, 4:1 wherein the total concentration of the sample was 400 ppm. The samples were prepared in phosphate buffer and the pH was adjusted using phosphoric acid. Samples were prepared at the following pH; 2.0, 2.5, 3.0 and 3.5. These samples were incubated at 40° C. for 8 weeks. This incubation protocol should mimic the degradation at room temperature over 6 months. The amount of Reb D and Reb M in each sample at T=0 was calculated by HPLC this was then used to calculate the amount of remaining Reb M in each sample at each specified time point. Aliquots were taken at 2, 4, 6 and 8 weeks and analysed by HPLC to determine the degradation of Reb D and combinations of Reb D and Reb M over the 8 week study.

[2] = cited from earlier work
[3] = pH 2, Reb D 0.008 % w/w + Reb M 0.032 % w/w
[4] = pH 2, Reb D 0.02 % w/w + Reb M 0.02 % w/w
[5] = pH 2, Reb D 0.032 % w/w + Reb M 0.008 % w/w
[6] = pH 2.5, Reb D 0.005 % w/w alone
[7] = pH 2.5, Reb D 0.008 % w/w + Reb M 0.032 % w/w
[8] = pH 2.5, Reb D 0.015 % w/w alone
[9] = pH 2.5, Reb D 0.02 % w/w + Reb M 0.02 % w/w
[10] = pH 2.5, Reb D 0.025 % w/w alone
[11] = pH 2.5, Reb D 0.032 % w/w + Reb M 0.008 % w/w
[12] = pH 3, Reb D 0.008 % w/w + Reb M 0.032 % w/w
[13] = pH 3, Reb D 0.02 % w/w + Reb M 0.02 % w/w
[14] = pH 3, Reb D 0.032 % w/w + Reb M 0.008 % w/w
[15] = pH 3.5, Reb D 0.005 % w/w alone
[16] = pH 3.5, Reb D 0.008 % w/w + Reb M 0.032 % w/w
[17] = pH 3.5, Reb D 0.015 % w/w alone
[18] = pH 3.5, Reb D 0.02 % w/w + Reb M 0.02 % w/w
[19] = pH 3.5, Reb D 0.025 % w/w alone
[20] = pH 3.5, Reb D 0.032 % w/w + Reb M 0.008 % w/w

For `C=C1C[C@@]23CC[C@H]4[C@@](C)(CCC[C@@]4(C)C(=O)O[C@@H]4O[C@H](CO)[C@@H](O)[C@H](O)[C@H]4O[C@@H]4O[C@H](CO)[C@@H](O)[C@H](O)[C@H]4O)[C@@H]2CC[C@]1(O[C@@H]1O[C@H](CO)[C@@H](O)[C@H](O[C@@H]2O[C@H](CO)[C@@H](O)[C@H](O)[C@H]2O)[C@H]1O[C@@H]1O[C@H](CO)[C@@H](O)[C@H](O)[C@H]1O)C3` [Reb D, rebaudioside D], the “degradation of low concentration sample of Reb D versus higher concentration samples” value ([1]; across pH 2.0 to 3.5) was “degraded more quickly”, the “additional degradation of 50 ppm Reb D sample versus 80 ppm Reb D sample in combination with 320 ppm Reb M” value ([1]; pH 2.0) was “approx. 10%” and the “% Reb D degradation 2 weeks” value ([1]; pH 2, Reb D 0.005 % w/w alone) was 37%. The “% Reb D degradation 4 weeks” value ([1]; pH 2, Reb D 0.005 % w/w alone) was 73%, the “% Reb D degradation 6 weeks” value ([1]; pH 2, Reb D 0.005 % w/w alone) was 84% and the “% Reb D degradation 8 weeks” value ([1]; pH 2, Reb D 0.005 % w/w alone) was 91%. For the same compound, the “% Reb D degradation 2 weeks” value [1, 3] was 36%, the “% Reb D degradation 4 weeks” value [1, 3] was 62% and the “% Reb D degradation 6 weeks” value [1, 3] was 76%. For the same compound, the “% Reb D degradation 8 weeks” value [1, 3] was 85%, the “% Reb D degradation 2 weeks” value ([1]; pH 2, Reb D 0.015 % w/w alone) was 28% and the “% Reb D degradation 4 weeks” value ([1]; pH 2, Reb D 0.015 % w/w alone) was 70%. The “% Reb D degradation 6 weeks” value ([1]; pH 2, Reb D 0.015 % w/w alone) was 82%, the “% Reb D degradation 8 weeks” value ([1]; pH 2, Reb D 0.015 % w/w alone) was 90% and the “% Reb D degradation 2 weeks” value [1, 4] was 28%. The “% Reb D degradation 4 weeks” value [1, 4] was 59%, the “% Reb D degradation 6 weeks” value [1, 4] was 72% and the “% Reb D degradation 8 weeks” value [1, 4] was 82%. For the same compound, the “% Reb D degradation 2 weeks” value ([1]; pH 2, Reb D 0.025 % w/w alone) was 32%, the “% Reb D degradation 4 weeks” value ([1]; pH 2, Reb D 0.025 % w/w alone) was 68% and the “% Reb D degradation 6 weeks” value ([1]; pH 2, Reb D 0.025 % w/w alone) was 81%. The “% Reb D degradation 8 weeks” value ([1]; pH 2, Reb D 0.025 % w/w alone) was 89%, the “% Reb D degradation 2 weeks” value [1, 5] was 37% and the “% Reb D degradation 4 weeks” value [1, 5] was 63%. The “% Reb D degradation 6 weeks” value [1, 5] was 78%, the “% Reb D degradation 8 weeks” value [1, 5] was 86% and the “% Reb D degradation 2 weeks” value ([1]; pH 2, Reb D 0.04 % w/w alone) was 32%. The “% Reb D degradation 4 weeks” value ([1]; pH 2, Reb D 0.04 % w/w alone) was 66%, the “% Reb D degradation 6 weeks” value ([1]; pH 2, Reb D 0.04 % w/w alone) was 79% and the “% Reb D degradation 8 weeks” value ([1]; pH 2, Reb D 0.04 % w/w alone) was 86%. The “degradation of Reb D samples which also contained Reb M versus Reb D samples alone (FIG. 4)” value ([1]; pH 2.0 and 2.5, averaged over samples) was “degraded less”, the “% Reb D degradation 2 weeks” value [1, 6] was 11% and the “% Reb D degradation 4 weeks” value [1, 6] was 37%. The “% Reb D degradation 6 weeks” value [1, 6] was 44%, the “% Reb D degradation 8 weeks” value [1, 6] was 55% and the “% Reb D degradation 2 weeks” value [1, 7] was 8%. The “% Reb D degradation 4 weeks” value [1, 7] was 28%, the “% Reb D degradation 6 weeks” value [1, 7] was 37% and the “% Reb D degradation 8 weeks” value [1, 7] was 42%. For the same compound, the “% Reb D degradation 2 weeks” value [1, 8] was 10%, the “% Reb D degradation 4 weeks” value [1, 8] was 32% and the “% Reb D degradation 6 weeks” value [1, 8] was 40%. The “% Reb D degradation 8 weeks” value [1, 8] was 50%, the “% Reb D degradation 2 weeks” value [1, 9] was 7% and the “% Reb D degradation 4 weeks” value [1, 9] was 25%. For the same compound, the “% Reb D degradation 6 weeks” value [1, 9] was 33%, the “% Reb D degradation 8 weeks” value [1, 9] was 42% and the “% Reb D degradation 2 weeks” value [1, 10] was 8%. The “% Reb D degradation 4 weeks” value [1, 10] was 27%, the “% Reb D degradation 6 weeks” value [1, 10] was 34% and the “% Reb D degradation 8 weeks” value [1, 10] was 44%. For the same compound, the “% Reb D degradation 2 weeks” value [1, 11] was 5%, the “% Reb D degradation 4 weeks” value [1, 11] was 23% and the “% Reb D degradation 6 weeks” value [1, 11] was 33%. For the same compound, the “% Reb D degradation 8 weeks” value [1, 11] was 42%, the “% Reb D degradation 2 weeks” value ([1]; pH 2.5, Reb D 0.04 % w/w alone) was 7% and the “% Reb D degradation 4 weeks” value ([1]; pH 2.5, Reb D 0.04 % w/w alone) was 25%. For the same compound, the “% Reb D degradation 6 weeks” value ([1]; pH 2.5, Reb D 0.04 % w/w alone) was 34%, the “% Reb D degradation 8 weeks” value ([1]; pH 2.5, Reb D 0.04 % w/w alone) was 43% and the “% Reb D degradation 2 weeks” value ([1]; pH 3, Reb D 0.005 % w/w alone) was 0%. For the same compound, the “% Reb D degradation 4 weeks” value ([1]; pH 3, Reb D 0.005 % w/w alone) was 17%, the “% Reb D degradation 6 weeks” value ([1]; pH 3, Reb D 0.005 % w/w alone) was 22% and the “% Reb D degradation 8 weeks” value ([1]; pH 3, Reb D 0.005 % w/w alone) was 29%. The “% Reb D degradation 2 weeks” value [1, 12] was 1%, the “% Reb D degradation 4 weeks” value [1, 12] was 17% and the “% Reb D degradation 6 weeks” value [1, 12] was 22%. The “% Reb D degradation 8 weeks” value [1, 12] was 24%, the “% Reb D degradation 2 weeks” value ([1]; pH 3, Reb D 0.015 % w/w alone) was 0% and the “% Reb D degradation 4 weeks” value ([1]; pH 3, Reb D 0.015 % w/w alone) was 11%. The “% Reb D degradation 6 weeks” value ([1]; pH 3, Reb D 0.015 % w/w alone) was 16%, the “% Reb D degradation 8 weeks” value ([1]; pH 3, Reb D 0.015 % w/w alone) was 22% and the “% Reb D degradation 2 weeks” value [1, 13] was 0%. For the same compound, the “% Reb D degradation 4 weeks” value [1, 13] was 17%, the “% Reb D degradation 6 weeks” value [1, 13] was 20% and the “% Reb D degradation 8 weeks” value [1, 13] was 23%. For the same compound, the “% Reb D degradation 2 weeks” value ([1]; pH 3, Reb D 0.025 % w/w alone) was 1%, the “% Reb D degradation 4 weeks” value ([1]; pH 3, Reb D 0.025 % w/w alone) was 10% and the “% Reb D degradation 6 weeks” value ([1]; pH 3, Reb D 0.025 % w/w alone) was 13%. The “% Reb D degradation 8 weeks” value ([1]; pH 3, Reb D 0.025 % w/w alone) was 19%, the “% Reb D degradation 2 weeks” value [1, 14] was 1% and the “% Reb D degradation 4 weeks” value [1, 14] was 14%. The “% Reb D degradation 6 weeks” value [1, 14] was 17%, the “% Reb D degradation 8 weeks” value [1, 14] was 20% and the “% Reb D degradation 2 weeks” value ([1]; pH 3, Reb D 0.04 % w/w alone) was 0%. The “% Reb D degradation 4 weeks” value ([1]; pH 3, Reb D 0.04 % w/w alone) was 9%, the “% Reb D degradation 6 weeks” value ([1]; pH 3, Reb D 0.04 % w/w alone) was 11% and the “% Reb D degradation 8 weeks” value ([1]; pH 3, Reb D 0.04 % w/w alone) was 18%. The “% Reb D degradation 8 weeks” value ([1]; pH 3.5, Reb D 0.005 % w/w (50 ppm) alone) was 20%, the “% Reb D degradation 2 weeks” value [1, 15] was 1% and the “% Reb D degradation 4 weeks” value [1, 15] was 10%. The “% Reb D degradation 6 weeks” value [1, 15] was 14%, the “% Reb D degradation 2 weeks” value [1, 16] was 0% and the “% Reb D degradation 4 weeks” value [1, 16] was 6%. The “% Reb D degradation 6 weeks” value [1, 16] was 6%, the “% Reb D degradation 8 weeks” value [1, 16] was 9% and the “% Reb D degradation 2 weeks” value [1, 17] was 0%. The “% Reb D degradation 4 weeks” value [1, 17] was 4%, the “% Reb D degradation 6 weeks” value [1, 17] was 5% and the “% Reb D degradation 8 weeks” value [1, 17] was 8%. For the same compound, the “% Reb D degradation 2 weeks” value [1, 18] was 0%, the “% Reb D degradation 4 weeks” value [1, 18] was 6% and the “% Reb D degradation 6 weeks” value [1, 18] was 8%. For the same compound, the “% Reb D degradation 8 weeks” value [1, 18] was 9%, the “% Reb D degradation 2 weeks” value [1, 19] was 0% and the “% Reb D degradation 4 weeks” value [1, 19] was 2%. The “% Reb D degradation 6 weeks” value [1, 19] was 2%, the “% Reb D degradation 8 weeks” value [1, 19] was 5% and the “% Reb D degradation 2 weeks” value [1, 20] was 1%. For the same compound, the “% Reb D degradation 4 weeks” value [1, 20] was 2%, the “% Reb D degradation 6 weeks” value [1, 20] was 2% and the “% Reb D degradation 8 weeks” value [1, 20] was 5%. For the same compound, the “% Reb D degradation 8 weeks” value ([1]; pH 3.5, Reb D 0.04 % w/w (400 ppm) alone) was 5%, the “% Reb D degradation 2 weeks” value ([1]; pH 3.5, Reb D 0.04 % w/w alone) was 1% and the “% Reb D degradation 4 weeks” value ([1]; pH 3.5, Reb D 0.04 % w/w alone) was 1%. For the same compound, the “% Reb D degradation 6 weeks” value ([1]; pH 3.5, Reb D 0.04 % w/w alone) was 1%, the “stability of Reb D combined with Reb M in a ratio of about 1:1, compared to on its own” value ([1]; pH range 2.0 to 2.5) was “most stable” and the “Sweetness potency (relative to sucrose)” value [2] was 221.
